According to US12049483B2, “Selective and noncovalent inhibitors of oncogenic RAS mutants” (New York University, priority 2020, dated 2024):
Entries after “also recorded” stand apart in the source; their conditions may differ.

Experiments:
[1] = biological target: T1, KRAS(WT) (Homo sapiens, UniProt P01116); assay: Yeast display binding titration, KRAS(WT); conditions: either nucleotide-bound form
T1 construct: KRAS4B residues 1-174 containing G12C, G12V, G12D, G13D, Q61L, WT; made in house; host or cells: E. coli BL21(DE3) with pBirA
Experimental: (§1) Nucleotide exchange of RAS. Purified RAS proteins used in binding experiment and crystallization were prepared by diluting stock protein (typically containing 20-250 μM RAS) 25 times with 20 mM Tris-Cl buffer pH 7.5 containing 5 mM EDTA, 0.1 mM DTT and 1 mM final concentration of a nucleotide (GDP or GTPγS). Samples were incubated at 30° C. for 30 minutes. MgCl2 was then added to the sample at a final concentration of 20 mM and the solution was further incubated on ice for at least 5 minutes prior to use.
(§2) Monobody development. General procedures for the development of monobodies against purified protein targets have been described previously. After four rounds of phage display library selection using biotinylated KRAS(G12C) at concentrations of 100 nM, 100 nM, 50 nM and 50 nM, the genes encoding monobodies from the enriched phage pool were transferred to a yeast display vector, which was used to construct yeast-display libraries. The yeast display libraries were sorted using a Bio-Rad S3e fluorescence-activated cell sorter or a […] II cell sorter (BD Biosciences). […] Single clones were then screened for selective binding to RAS mutants. The expression of monobodies on the surface of yeast cells were detected using mouse anti-VS and anti-mouse IgG-FITC conjugate. Target binding was detected with neutravidin Dylight650. Yeast cells were analyzed using an iQue flow cytometer (Sartorius). […]

[2] = test system: PATU8902 tumors; assay: Mouse xenograft model, PATU8902; assay type: in vivo; conditions: subcutaneous PATU8902 in nude mice; dox-induced expression after tumor size exceeded 100 mm^3
Experimental: Mouse xenograft experiments. Animal experiments were approved by NYU Langone Institutional Animal Care and Use Committee (IACUC, protocol 170602). PATU8902 or H23 cells expressing monobody under a dox-inducible promotor (5×10^6) were subcutaneously injected into athymic nude mice (Charles River). Once the average tumor size exceeded 100 mm^3, the mice were given food containing doxycycline (Envigo; TD.01306). Tumor sizes were measured using a digital caliper thrice a week along with body weight to ensure that mice were healthy through the duration of doxycycline treatment.

[3] = biological target: KRAS(G12C) (Homo sapiens, UniProt P01116, G12C); assay: Competitive binding assay of 12VC1 against known interaction partners of RAS (yeast display); set-up: KRAS4B residues 1-174 containing G12C, G12V, G12D, G13D, Q61L, WT; His6 (N, cleaved yes); Avi-tag (N, cleaved yes); made in house; host or cells: E. coli BL21(DE3)
Experimental: After four rounds of phage display library selection using biotinylated KRAS(G12C) at concentrations of 100 nM, 100 nM, 50 nM and 50 nM, the genes encoding monobodies from the enriched phage pool were transferred to a yeast display vector, which was used to construct yeast-display libraries. The yeast display libraries were sorted using a Bio-Rad S3e fluorescence-activated cell sorter or a [sequence] II cell sorter (BD Biosciences). […] The expression of monobodies on the surface of yeast cells were detected using mouse anti-VS and anti-mouse IgG-FITC conjugate. Target binding was detected with neutravidin Dylight650. Yeast cells were analyzed using an iQue flow cytometer (Sartorius).

[4] = test system: endogenous KRAS from PATU8902 (KRAS(G12V)) and H358 (KRAS(G12C)); assay: Pull-down assay with biotinylated 12VC1 from cell lysates; assay type: binding; conditions: PATU8902 and H358 lysates vs growth factor stimulated HEK293T (wild-type RAS)
Experimental: Pull-down assays. H358, PATU8902, and HEK293T cells were cultured in 10 cm plates (Corning, #430167). H358 and PATU8902 cells were treated with and without ARS1620 (SelleckChem, 58707) at a final concentration of 10 μM for 1.5 hours, and HEK293T cells were treated with EGF (PeproTech; AF-100-15) at a final concentration of 50 ng/mL for 4 minutes. Cells were lysed by incubating them on ice for 15 minutes in GTPase lysis buffer (25 mM Tris-Cl pH 7.2, 150 mM NaCl, 5 mM MgCl2, 1% NP-40 and 5% glycerol supplemented with protease tablet (Roche, 5892991001) and phosphatase inhibitors (1 mM sodium orthovanadate, 10 mM NAF, 54 mM β-glycerol phosphate)) immediately before analysis. After centrifugation for 15 minutes at 15,000 g, the supernatants were collected and incubated with SA agarose resins (Thermo Fisher Scientific) for 1 hour at 4° C. to remove non-specific binders to the resins. After the removal of resins via centrifugation, the pre-cleared lysates were then incubated with biotinylated monobodies bound to SA agarose resins for 3 hours at 4° C. while rotating. The agarose resins were then washed twice with the GTPase lysis buffer and boiled in 1×SDS buffer with 37.5 mM β-mercaptoethanol and processed for Western blotting using a pan-RAS antibody (Santa Cruz Biotechnology, C-4).

[5] = biological target: T2, NRAS(WT) (Homo sapiens, UniProt P01111); assay: Yeast display binding titration, NRAS(WT); conditions: GTPγS and GDP bound states
T2 construct: made in house; host or cells: E. coli BL21(DE3) with pBirA
T2 sequence (P01111 whole entry): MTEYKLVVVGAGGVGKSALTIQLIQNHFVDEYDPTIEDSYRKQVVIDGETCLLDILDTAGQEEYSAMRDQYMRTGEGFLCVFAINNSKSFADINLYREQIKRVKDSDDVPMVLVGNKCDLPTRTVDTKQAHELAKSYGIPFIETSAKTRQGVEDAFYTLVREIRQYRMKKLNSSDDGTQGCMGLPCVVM
Experimental: as §1, §2

[6] = biological target: T3, KRAS(G13D) (Homo sapiens, UniProt P01116, G13D); assay: Yeast display binding titration, KRAS(G13D); conditions: GTPγS and GDP bound states
T3 construct: KRAS4B residues 1-174 containing G12C, G12V, G12D, G13D, Q61L, WT; made in house; host or cells: E. coli BL21(DE3) with pBirA
Experimental: as §1, §2

[7] = biological target: T4, HRAS(WT) (Homo sapiens, UniProt P01112); assay: Yeast display binding titration, HRAS(WT); conditions: GTPγS and GDP bound states
T4 construct: made in house; host or cells: E. coli BL21(DE3) with pBirA
T4 sequence (P01112 whole entry): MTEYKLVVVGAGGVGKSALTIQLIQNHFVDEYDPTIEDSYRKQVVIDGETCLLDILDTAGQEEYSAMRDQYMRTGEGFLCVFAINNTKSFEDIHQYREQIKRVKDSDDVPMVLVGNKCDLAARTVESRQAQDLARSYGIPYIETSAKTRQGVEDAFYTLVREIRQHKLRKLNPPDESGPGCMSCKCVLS
Experimental: as §1, §2

VSSVPTKLEVVAATPTSLLISWDAPAVTVFFYVITYGETGHGVGAFQAFKVPGSKSTATISGLKPGVDYTITVYARGYSKQGPYKPSPISINYRT [12VC1]
binding [1]: did not detectably bind
tumor growth [2]: significantly reduced tumor growth
competition with RAF1-RBD for binding to RAS [3]: competed
capture of endogenous KRAS in pull-down [4]: selectively captured endogenous KRAS
binding [5]: no binding; also recorded: did not detectably bind
binding [6]: no binding
binding [7]: no binding; also recorded: did not detectably bind
